Source: paper PMC7324608 (Scientific Reports, 2020)
Read-outs that look alike come from different tables or passages of the source.

What was measured:
HpHtrA wt = target: T1, HpHtrA wt (Helicobacter pylori, UniProt G2J5T2); test: HpHtrA oligomerization, non-reducing SDS-PAGE; design: (HpHtrA, G18-K475, UniProt G2J5T2); GST (N, cleaved yes); made in house; host or cells: E. coli BL21
T1 sequence (G2J5T2 18-475): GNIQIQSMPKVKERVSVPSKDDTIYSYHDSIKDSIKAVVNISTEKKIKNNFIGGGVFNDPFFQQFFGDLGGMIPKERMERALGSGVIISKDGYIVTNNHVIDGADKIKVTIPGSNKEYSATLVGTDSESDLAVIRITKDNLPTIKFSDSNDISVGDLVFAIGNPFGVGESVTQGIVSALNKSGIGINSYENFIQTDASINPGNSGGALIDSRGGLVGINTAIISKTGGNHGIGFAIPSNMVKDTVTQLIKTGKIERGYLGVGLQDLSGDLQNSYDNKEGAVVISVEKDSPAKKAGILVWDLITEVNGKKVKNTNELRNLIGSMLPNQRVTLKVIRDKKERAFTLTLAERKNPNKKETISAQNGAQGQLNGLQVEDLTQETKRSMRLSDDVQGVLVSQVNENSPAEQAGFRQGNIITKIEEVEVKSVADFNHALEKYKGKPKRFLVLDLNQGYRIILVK
Method: Non-reducing sample buffer without β-mercaptoethanol was added and the samples were separated by SDS-PAGE containing 0.1% casein (Carl Roth, Karlsruhe, Germany) as a substrate. The gel was incubated for 60 min in renaturing buffer (2.5% Triton X-100) and equilibrated for 30 min in developing buffer (50 mM Tris–HCl, pH 7.4, 200 mM NaCl, 5 mM CaCl2, and 0.02% Brij-35) at room temperature under gentle agitation. Afterwards, the gel was incubated for 24 h at 37 °C in developing buffer under gentle agitation. To visualize caseinolytic activity, the gel was stained in 0.5% Coomassie Brilliant Blue R250 (Carl Roth, Karlsruhe, Germany). For detection of multimers by SDS-PAGE, HpHtrA was separated by SDS-PAGE under non-reducing conditions. Proteins were visualized by staining with Coomassie Brilliant Blue G250. Independent experiments were repeated at least four times.

HpHtrA [1] = target: T2, HpHtrA (Helicobacter pylori, UniProt G2J5T2); test: FRET peptide assay of HpHtrA activity; assay type: biochemical; conditions: 5 µM FRET peptide, 250 nM HpHtrA, 37 °C, 50 mM HEPES pH 7.4, read-out: IC50 of HpHtrA inhibition
T2 construct: (HpHtrA, G18-K475, UniProt G2J5T2); GST (N, cleaved yes); made in house; host or cells: E. coli BL21
T2 sequence (G2J5T2 18-475): T1 sequence (G2J5T2 18-475)
Source text: For the establishment of a FRET-based assay for the quantification of the HpHtrA activity, the 2-Abz/3-nitrotyrosine FRET pair[53]–[55] was introduced into the sequence AQRVAF: the fluorophore (2-Abz, Ex/Em 320/435 nm) was coupled at the N-terminus, whereas the quencher (3-nitrotyrosine, Ex 425 nm[56]) was positioned at the C-end. The FRET activity of this peptide was first confirmed by measuring the fluorescence emission in the range 400–450 nm before and after the trypsin-mediated cleavage of the peptide bond R_V (Fig. S3). The measurements were performed in a black, flat-bottom 96-well plate (Nunc, Thermo Scientific, Schwerte, Germany) at 37 °C. 5 µM of the peptide were incubated with 250 nM HpHtrA and 125 nM trypsin in 50 mM HEPES buffer (pH 7.4). […] Cleavage of the peptide leads to increasing fluorescence, which was measured in a plate reader (Infinite 200 PRO, TECAN, Groedig, Austria) with a filter setting of 320 nm/425 nm (Ex/Em). Statistical analysis was performed with GraphPad Prism software (Vers. 8.0.2). […] Three independent experiments containing three technical replicates were analyzed for every sample. Significance is indicated as non-significant (ns) for p > 0.05, * for p < 0.05, ** for p < 0.01, *** for p < 0.001, and **** for p < 0.0001.

HpHtrA [2] = target: T2, HpHtrA; test: in vitro E-cadherin (hCdh1) cleavage by HpHtrA (Western blot); assay type: biochemical; conditions: 50 ng hCdh1, 250 ng HpHtrA, 16 h, 37 °C; for effect on HpHtrA-mediated hCdh1 cleavage/fragmentation: 1 mM
Source text: (§1) The proteins were separated by SDS-PAGE and visualized by staining with Coomassie Brilliant Blue G250 (Lactan, Vienna, Austria). […] Proteins were separated using SDS-PAGE and blotted onto a nitrocellulose membrane. Human Cdh1 was detected by an antibody recognizing the EC5 domain of hCdh1 (Abcam, Cambridge, UK) and a polyclonal serum was used to detect HpHtrA[22]. Independent experiments were repeated at least three times.

HpHtrA [3] = target: T2, HpHtrA; test: in vitro casein cleavage by HpHtrA (Coomassie SDS-PAGE); assay type: biochemical; conditions: 10 µg casein, 250 ng HpHtrA, 16 h, 37 °C; for effect on HtrA-mediated casein degradation: 1 mM
Source text: as §1

BbHtrA = test system: BbHtrA; design: method as in PMID 26480895; conditions: cited from earlier work
HtrA homolog A (HhoA) = conditions: cited from earlier work

[Cu+2] [Cu^++, CuCl2]
stabilization of HpHtrA wt oligomers (HpHtrA wt; low concentrations, Coomassie-stained SDS-PAGE, non-reducing): only slightly stabilized
IC50 (HpHtrA [1]; after 15 min): 295 nM
IC50 (HpHtrA [1]; after 180 min): 937 nM
effect on HpHtrA-mediated hCdh1 cleavage/fragmentation (HpHtrA [2]): strongly decreased
concentration giving a slight inhibitory effect on casein cleavage (HpHtrA [3]): 250 µM
effect on HtrA-mediated casein degradation (HpHtrA [3]): strongly inhibited
effect on casein degradation by BbHtrA (BbHtrA): similarly inhibited

[Zn+2] [Zn^++, ZnCl2]
effect on HhoA in a casein cleavage assay (HtrA homolog A (HhoA)): inactivates
concentration sufficient to enhance oligomerization or the stability of HpHtrA (HpHtrA wt; Coomassie-stained gel, non-reducing conditions): 50 µM
IC50 (HpHtrA [1]; after 15 min): 650 nM
IC50 (HpHtrA [1]; after 180 min): 2570 nM
concentration that clearly inhibited HpHtrA-mediated hCdh1 fragmentation (HpHtrA [2]): 50 µM
effect on HpHtrA-mediated hCdh1 cleavage/fragmentation (HpHtrA [2]): strongly decreased
concentration giving a slight inhibitory effect on casein cleavage (HpHtrA [3]): 250 µM
IC100 (HpHtrA [3]; read-out: concentration required to fully inhibit casein cleavage): 500 to 1000 µM
effect on HtrA-mediated casein degradation (HpHtrA [3]): strongly inhibited
effect on casein degradation by BbHtrA (BbHtrA): similarly inhibited
